{"source": "patent US20240335500A1", "about": "“CONTROLLING PRO-INFLAMMATORY MACROPHAGE PHENOTYPE THROUGH BIOFUNCTIONAL HYDROGEL DESIGN” (UNIVERSITY OF FLORIDA RESEARCH FOUNDATION, INCORPORATED, priority 2021, published 2024)", "key": {"α2β1 integrin": {"target": "T1, α2β1 integrin (Homo sapiens, UniProt P05556+P17301)", "T1 construct": "Integrin α2β1 appears to play a pivotal role in macrophage polarization by affecting downstream signaling pathways", "T1 sequence (P17301 30-1181)": "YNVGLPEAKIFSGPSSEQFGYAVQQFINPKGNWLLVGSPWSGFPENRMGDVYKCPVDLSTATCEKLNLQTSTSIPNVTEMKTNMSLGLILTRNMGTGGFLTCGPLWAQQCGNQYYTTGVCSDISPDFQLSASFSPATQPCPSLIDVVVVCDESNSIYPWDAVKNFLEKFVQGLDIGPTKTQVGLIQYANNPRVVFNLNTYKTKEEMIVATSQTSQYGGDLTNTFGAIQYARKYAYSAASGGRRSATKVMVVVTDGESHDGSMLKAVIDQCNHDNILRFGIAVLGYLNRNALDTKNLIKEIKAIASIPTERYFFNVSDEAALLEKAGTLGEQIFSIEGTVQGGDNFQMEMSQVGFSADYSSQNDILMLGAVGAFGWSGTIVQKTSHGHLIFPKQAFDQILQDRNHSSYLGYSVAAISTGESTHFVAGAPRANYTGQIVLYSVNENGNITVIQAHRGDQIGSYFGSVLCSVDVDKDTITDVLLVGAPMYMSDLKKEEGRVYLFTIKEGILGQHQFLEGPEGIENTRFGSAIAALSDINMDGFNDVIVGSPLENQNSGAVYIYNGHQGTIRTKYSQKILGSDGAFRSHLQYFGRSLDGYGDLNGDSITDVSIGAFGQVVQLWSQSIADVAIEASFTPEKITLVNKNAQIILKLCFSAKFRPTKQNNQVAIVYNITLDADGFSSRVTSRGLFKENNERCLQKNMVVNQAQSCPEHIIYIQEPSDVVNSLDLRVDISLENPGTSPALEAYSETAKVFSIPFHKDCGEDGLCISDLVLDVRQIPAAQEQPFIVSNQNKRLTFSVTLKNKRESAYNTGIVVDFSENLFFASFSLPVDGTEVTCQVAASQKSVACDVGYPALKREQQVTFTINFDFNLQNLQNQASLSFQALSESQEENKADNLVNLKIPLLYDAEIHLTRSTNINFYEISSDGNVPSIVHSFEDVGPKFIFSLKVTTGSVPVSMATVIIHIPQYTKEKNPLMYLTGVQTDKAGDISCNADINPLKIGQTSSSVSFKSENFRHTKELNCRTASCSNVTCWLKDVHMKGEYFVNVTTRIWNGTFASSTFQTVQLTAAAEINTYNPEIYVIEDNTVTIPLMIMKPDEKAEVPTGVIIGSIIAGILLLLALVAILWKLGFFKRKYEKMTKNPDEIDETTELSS", "T1 sequence (P05556 21-798)": "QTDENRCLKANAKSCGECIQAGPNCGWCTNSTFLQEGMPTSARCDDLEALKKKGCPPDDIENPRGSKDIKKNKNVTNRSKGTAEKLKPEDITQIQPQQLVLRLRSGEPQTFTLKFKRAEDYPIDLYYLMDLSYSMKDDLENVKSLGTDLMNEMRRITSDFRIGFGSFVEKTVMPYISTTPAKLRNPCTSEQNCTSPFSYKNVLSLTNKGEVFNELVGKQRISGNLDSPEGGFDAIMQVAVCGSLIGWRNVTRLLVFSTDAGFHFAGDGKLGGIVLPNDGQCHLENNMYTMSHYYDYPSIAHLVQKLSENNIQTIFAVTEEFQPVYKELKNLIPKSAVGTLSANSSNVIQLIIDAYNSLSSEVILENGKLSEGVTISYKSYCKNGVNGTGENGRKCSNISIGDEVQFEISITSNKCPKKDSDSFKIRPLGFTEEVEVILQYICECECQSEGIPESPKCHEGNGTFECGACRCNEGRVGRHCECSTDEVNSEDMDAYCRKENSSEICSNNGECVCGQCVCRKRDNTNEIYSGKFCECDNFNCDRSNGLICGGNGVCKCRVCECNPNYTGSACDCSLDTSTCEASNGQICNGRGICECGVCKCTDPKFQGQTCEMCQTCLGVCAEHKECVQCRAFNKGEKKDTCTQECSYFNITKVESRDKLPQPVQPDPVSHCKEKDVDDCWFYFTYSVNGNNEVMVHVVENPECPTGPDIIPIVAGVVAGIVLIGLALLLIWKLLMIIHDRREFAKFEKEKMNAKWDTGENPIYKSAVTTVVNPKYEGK", "conditions": "DGEA-coated plates, Cha et al.; cited from earlier work"}, "Raw 264.7 macrophages [1]": {"tested_on": "Raw 264.7 macrophages", "assay": "Soluble delivery of DGEA to macrophages encapsulated in 3D control PEG hydrogels, iNOS/DAPI immunostaining", "type": "cell-based, mouse", "conditions": "3D control hydrogel (3.5 mM PEG-RGDS, 5% PEG-PQ-PEG), 5 mM soluble DGEA in M1 media, 72 hrs; non-significant (p>0.05)", "protocol": "Raw 264.7 macrophages were encapsulated within the hydrogel. These quiescent M0 macrophages were allowed to equilibrate in the incubator for 24 hrs, after which M1 media was added to stimulate them towards the pro-inflammatory phenotype. At this time, 5 mM DGEA was also dissolved into the media and the samples were incubated for another 72 hrs. The samples were then fixed, stained, imaged, and analyzed. The immunofluorescent images represent DAPI stained cells and iNOS stained cells (inset (b) in FIG. 2). The 3D hydrogels were imaged using a Keyence BZ-X800 microscope and the images represent 2D slices of an entire 3D Z-stack. […] The data were statistically non-significant (p>0.05). […]\n(§1) Cells were stimulated with M1 media 24 hrs post-seeding and post-encapsulation. In all studies, the effects of DGEA on the cells were assessed 72 hrs post-stimulation with M1 media by immunocytochemistry (ICC). […]\nImages were quantified based on the number of iNOS^+ cells, normalized to DAPI^+ cells for each condition. Images were analyzed using the “automated cell counting of single color image” feature on ImageJ (NIH) software after a randomized, unbiased selection of images. All images were turned to 8-bit grayscale and threshold to highlight all the cells to be counted. […]"}, "Raw 264.7 macrophages [2]": {"tested_on": "Raw 264.7 macrophages", "assay": "Soluble delivery of DGEA to 2D cultures of M1-stimulated macrophages, iNOS/DAPI immunostaining", "type": "cell-based, mouse", "conditions": "2D culture, M1 media (100 ng/mL LPS, 10 ng/mL IFNγ), 5 mM soluble DGEA, 72 hrs; without DGEA 0.5±0.1; p<0.05", "protocol": "To establish interactions between DGEA and M1 macrophages, a 2D study was conducted with soluble delivery of DGEA to the media culture. […] 5 mM DGEA was dissolved in the media to assess the effects of DGEA on macrophage activation (S. Y. Yoo, M. Kobayashi, P. P. Lee, and S. W. Lee, “Early osteogenic differentiation of mouse preosteoblasts induced by collagen-derived DGEA-peptide on nanofibrous phage tissue matrices,” Biomacromolecules, vol. 12, no. 4, pp. 987-996, April 2011). After stimulation, the cells were stained for 4′,6-diamidino-2-phenylindole (DAPI) and iNOS (inset (b) of FIG. 1). The addition of 5 mM DGEA in the media reduced the number of iNOS^+ cells, as represented in insets (b) and (c) in FIG. 1. The iNOS^+ cell count was normalized to the number of DAPI^+ cells for each image chosen to be analyzed. […] Polarized iNOS^+ macrophage cells with soluble DGEA were dramatically lower than iNOS^+ macrophage cells without any presence of DGEA. […] ECM-derived peptides have been investigated in cell function. For example, the interaction between collagen and α2β1 integrin is important for the osteoblastic differentiation of bone marrow cells. […]\nas §1"}, "platelets": {"tested_on": "platelets", "conditions": "Luzak et al.; cited from earlier work"}, "Raw 264.7 macrophages [3]": {"tested_on": "Raw 264.7 macrophages", "assay": "iNOS and CD206 expression in M0, M1 and M2 raw 264.7 macrophages encapsulated in control and PEG-DGEA hydrogels", "type": "cell-based, mouse"}, "ovarian carcinoma cells": {"tested_on": "ovarian carcinoma cells", "conditions": "Fishman et al.; cited from earlier work"}, "bone marrow cells": {"tested_on": "bone marrow cells", "conditions": "bone marrow cells encapsulated in type I collagen matrix gels, Mizuno et al.; cited from earlier work"}, "[4]": {"tested_on": "TNFα, IL-6, iNOS gene expression", "assay": "RT-PCR of pro-inflammatory gene expression (TNFα, IL-6, iNOS)", "type": "cell-based", "conditions": "FIG. 7", "from_the_text": "The results validate the inflammation inhibiting properties of DGEA by looking at pro-inflammatory gene expressions. The genes assessed include TNFα (a); IL-6 (b); and iNOS (c)."}}}
{"substance": "Asp-Gly-Glu-Ala (DGEA; DGEA peptide sequence)", "values": [{"measurement": "expression of CD206 (M2 marker)", "setting": "α2β1 integrin", "value": "higher expression of CD206"}, {"measurement": "number of iNOS+ cells (normalized to DAPI+ cells)", "setting": "Raw 264.7 macrophages [1]", "value": "lower than the number of iNOS^+ cells without any DGEA"}, {"measurement": "iNOS+ M1 activated macrophages as fraction of the total DAPI+ cells", "setting": "Raw 264.7 macrophages [2]", "value": "0.1±0.1"}, {"measurement": "platelet adhesion", "setting": "platelets", "value": "significant inhibition in platelet adhesion"}, {"measurement": "iNOS expression", "setting": "Raw 264.7 macrophages [3]; M0, M1 and M2 macrophages encapsulated in PEG-DGEA vs control hydrogels, FIG. 8", "value": "reduced iNOS expression"}, {"measurement": "CD206 expression", "setting": "Raw 264.7 macrophages [3]; M1 or M2 macrophage phenotypes in PEG-DGEA hydrogels, FIG. 9", "value": "did not appear to have any significant effects"}, {"measurement": "adhesion of ovarian carcinoma cells to collagen", "setting": "ovarian carcinoma cells", "value": "block adhesion"}, {"measurement": "expression of osteoblastic phenotype", "setting": "bone marrow cells", "value": "inhibited the expression of osteoblastic phenotype"}, {"measurement": "expression of pro-inflammatory mediators (TNFα, IL-6, iNOS) by RT-PCR", "setting": "[4]", "value": "significantly reduces expression"}]}
